Assay results: patent US20250032651A1, “[177LU] LUTETIUM-PSMA I&T COMPOSITION AND DOSIMETRY, KIT, METHOD OF MAKING, AND METHOD OF USING THEREOF” (Curium US LLC, priority 2022, published 2025)
Several values for one entry are separate records, joined by “and”; a condition that tells them apart may be missing. Equal values may be shown once.

Assay: Normal organ dosimetry Cycle 1: SPECT/CT, TIACs, OLINDA 2.2.3 absorbed radiation dose
Assay type: in vivo, human
Settings: individual patients/doses
Procedure: This Example presents the biodistribution, dosimetry, and pharmacokinetics (PK) results of a PK/Dosimetry sub-study performed as part of a Phase III trial. Twenty-seven (27) patients were administered a target activity of 7.4±10% GBq of ^177Lu-PSMA-I&T and underwent single photon emission computed tomography (SPECT)/computed tomography (CT) imaging at four timepoints (4 h, 24 h, 48 h, and 168 h). Image data was analysed to compute time-activity curves (TACs) and subsequently time-integrated activity coefficients (TIACs) in each organ of interest and in organs showing appreciable and meaningful ^177Lu-PSMA-I&T activity. Organ Level Internal Dose Assessment (OLINDA 2.2.3) was used to compute organ and whole body absorbed radiation doses for each patient.
All participating sites underwent a rigorous site setup process during which all dose calibrators, scanners, and gamma counters used in the sub-study were calibrated. Sites were allowed to enroll patients in the sub-study only after the completion and approval of all site setup processes by Invicro. Patients underwent SPECT/CT imaging, with anatomical coverage typically extending from the salivary glands to the pelvis, following the administration of a targeted 7.4±10% GBq of ^177Lu-PSMA-I&T at cycle 1. SPECT/CT imaging was performed at four timepoints: 4 h, 24 h, 48 h, and 168 h post-injection. Additionally, a subset of patients imaged at Cycle 1 (16 out of 27), were also imaged at Cycle 3 (Table 2).
The imaging data was analyzed using Invicro's VivoQuant software, a validated software used in a 21 CFR § 11-compliant workflow. The general quantification approach was based on the principles detailed in the Medical Internal Radiation Dose (MIRD) Pamphlet No. 16, No 23, and No 26 as appropriate.
Volume of interest (VOI) (kidneys, bladder, liver, lumbar vertebrae L2-L4, lacrimal glands, salivary glands [parotid and submandibular glands], and whole body) were delineated on each dataset by a trained image analyst. […] Organs were segmented either by drawing the entire contour of the organ, or by placing a sphere in a representative region of the organ and then multiplying by the organ's effective mass (based on patient's height and weight). Segmentation methods for each organ are specified in Table 3 and were consistently applied to each patient.
Clearance of the radiopharmaceutical was derived from a data-appropriate fit of each organ's TAC. Depending on the TAC's shape, the data was fitted with the sum of one, two, or three exponentials, or using a rise and fall model. Fitting was performed with in-house Python software. TIACs were calculated through analytical integration of the curve fit extrapolated to infinity. […] A whole-body TAC was derived from delineating the imaged body. The remainder activity was determined by subtracting the cumulative organ TIACs from the whole body TIAC.
Organ TIACs were input into OLINDA 2.2.3 for the computation of organ and whole-body absorbed doses, using International Commission on Radiological Protection (ICRP)-103 weighing factors. The ICRP-89 derived male phantom was used for dose estimation. Organs and body mass as defined by ICRP-89 were scaled based on height and mass using patient effective mass.^4 The voiding bladder model as implemented in OLINDA was used to determine bladder TIAC, assuming a voiding interval of 4 hours. The human alimentary tract model (HAT model) described in ICRP 100 and implemented in OLINDA was used to compute doses to the small intestine, right colon, left colon and rectum for patients showing clearance through the GI tract. The fraction of injected activity (fIA) cleared via the GI tract was determined by taking the peak fIA in the GI tract over all the imaging timepoints. […] The Red Marrow mass in L2-L4 was assumed to be 6.7% of the total red marrow mass.

With `O=C([O-])CC[C@H](NC(=O)N[C@@H](CCCCNC(=O)CCCCCCC(=O)NCCCC[C@@H](NC(=O)[C@@H](Cc1ccccc1)NC(=O)[C@@H](Cc1ccc(O)c(I)c1)NC(=O)CC[C@H](C(=O)[O-])N1CCN(CC(=O)[O-])CCN(CC(=O)[O-])CCN(CC(=O)[O-])CC1)C(=O)[O-])C(=O)[O-])C(=O)[O-].[177Lu+3].[H+].[H+].[H+].[H+].[H+]` [Lu-177 PSMA I&T] the Kidneys absorbed dose (68.9 µg PSMA I&T content) was 0.31 Gy/GBq, the Kidneys absorbed dose (71.6 µg PSMA I&T content) was 0.36 Gy/GBq and the Kidneys absorbed dose (72.1 µg PSMA I&T content) was 0.32 Gy/GBq and 0.54 Gy/GBq. The Kidneys absorbed dose (76.8 µg PSMA I&T content) was 0.23 Gy/GBq, the Kidneys absorbed dose (77.0 µg PSMA I&T content) was 0.28 Gy/GBq and 0.56 Gy/GBq and the Kidneys absorbed dose (77.7 µg PSMA I&T content) was 0.41 Gy/GBq. For the same molecule, the Kidneys absorbed dose (79.0 µg PSMA I&T content) was 0.53 Gy/GBq, the Kidneys absorbed dose (79.4 µg PSMA I&T content) was 0.81 Gy/GBq and the Kidneys absorbed dose (79.5 µg PSMA I&T content) was 0.30 Gy/GBq and 0.38 Gy/GBq. For the same molecule, the Kidneys absorbed dose (80.4 µg PSMA I&T content) was 0.24 Gy/GBq, the Kidneys absorbed dose (82.0 µg PSMA I&T content) was 0.17 Gy/GBq and the Kidneys absorbed dose (82.2 µg PSMA I&T content) was 0.34 Gy/GBq. The Kidneys absorbed dose (82.6 µg PSMA I&T content) was 0.29 Gy/GBq, the Kidneys absorbed dose (85.3 µg PSMA I&T content) was 0.55 Gy/GBq and the Kidneys absorbed dose (89.2 µg PSMA I&T content) was 0.43 Gy/GBq. The Kidneys absorbed dose (90.0 µg PSMA I&T content) was 0.35 Gy/GBq, the Kidneys absorbed dose (92.6 µg PSMA I&T content) was 0.05 Gy/GBq and 0.45 Gy/GBq and the Kidneys absorbed dose (99.2 µg PSMA I&T content) was 0.57 Gy/GBq. The Kidneys absorbed dose (105.1 µg PSMA I&T content) was 0.48 Gy/GBq, the Kidneys absorbed dose (108.5 µg PSMA I&T content) was 0.27 Gy/GBq and the Kidneys absorbed dose (110.6 µg PSMA I&T content) was 0.64 Gy/GBq. For the same molecule, the Kidneys absorbed dose (119.1 µg PSMA I&T content) was 0.28 Gy/GBq, the “Lacrimal Glands absorbed dose” value (72.1 µg PSMA I&T content) was 0.19 Gy/GBq and 0.20 Gy/GBq and the “Lacrimal Glands absorbed dose” value (76.8 µg PSMA I&T content) was 0.08 Gy/GBq. The “Lacrimal Glands absorbed dose” value (77.0 µg PSMA I&T content) was 0.07 Gy/GBq and 0.06 Gy/GBq, the “Lacrimal Glands absorbed dose” value (77.7 µg PSMA I&T content) was 0.66 Gy/GBq and the “Lacrimal Glands absorbed dose” value (79.0 µg PSMA I&T content) was 0.16 Gy/GBq. For the same molecule, the “Lacrimal Glands absorbed dose” value (79.4 µg PSMA I&T content) was 0.63 Gy/GBq, the “Lacrimal Glands absorbed dose” value (79.5 µg PSMA I&T content) was 0.26 Gy/GBq and 0.47 Gy/GBq and the “Lacrimal Glands absorbed dose” value (80.4 µg PSMA I&T content) was 0.08 Gy/GBq. For the same molecule, the “Lacrimal Glands absorbed dose” value (82.0 µg PSMA I&T content) was 0.07 Gy/GBq, the “Lacrimal Glands absorbed dose” value (82.2 µg PSMA I&T content) was 0.54 Gy/GBq and the “Lacrimal Glands absorbed dose” value (89.2 µg PSMA I&T content) was 0.38 Gy/GBq. For the same molecule, the “Lacrimal Glands absorbed dose” value (90.0 µg PSMA I&T content) was 0.09 Gy/GBq, the “Lacrimal Glands absorbed dose” value (92.6 µg PSMA I&T content) was 0.05 Gy/GBq and 0.04 Gy/GBq and the “Lacrimal Glands absorbed dose” value (105.1 µg PSMA I&T content) was 1.19 Gy/GBq. The “Lacrimal Glands absorbed dose” value (108.5 µg PSMA I&T content) was 0.94 Gy/GBq and 1.09 Gy/GBq, the “Lacrimal Glands absorbed dose” value (110.6 µg PSMA I&T content) was 0.68 Gy/GBq and the “Lacrimal Glands absorbed dose” value (119.1 µg PSMA I&T content) was 0.62 Gy/GBq. For the same molecule, the Liver absorbed dose (68.9 µg PSMA I&T content) was 0.04 Gy/GBq, the Liver absorbed dose (71.6 µg PSMA I&T content) was 0.02 Gy/GBq and the Liver absorbed dose (72.1 µg PSMA I&T content) was 0.02 Gy/GBq. For the same molecule, the Liver absorbed dose (76.8 µg PSMA I&T content) was 0.03 Gy/GBq, the Liver absorbed dose (77.0 µg PSMA I&T content) was 0.06 Gy/GBq and 0.02 Gy/GBq and the Liver absorbed dose (77.7 µg PSMA I&T content) was 0.04 Gy/GBq. The Liver absorbed dose (79.0 µg PSMA I&T content) was 0.03 Gy/GBq, the Liver absorbed dose (79.4 µg PSMA I&T content) was 0.03 Gy/GBq and the Liver absorbed dose (79.5 µg PSMA I&T content) was 0.03 Gy/GBq and 0.07 Gy/GBq. The Liver absorbed dose (80.4 µg PSMA I&T content) was 0.10 Gy/GBq, the Liver absorbed dose (82.0 µg PSMA I&T content) was 0.05 Gy/GBq and the Liver absorbed dose (82.2 µg PSMA I&T content) was 0.02 Gy/GBq. For the same molecule, the Liver absorbed dose (82.6 µg PSMA I&T content) was 0.02 Gy/GBq, the Liver absorbed dose (85.3 µg PSMA I&T content) was 0.02 Gy/GBq and the Liver absorbed dose (89.2 µg PSMA I&T content) was 0.08 Gy/GBq. For the same molecule, the Liver absorbed dose (90.0 µg PSMA I&T content) was 0.04 Gy/GBq, the Liver absorbed dose (92.6 µg PSMA I&T content) was 0.09 Gy/GBq and 0.01 Gy/GBq and the Liver absorbed dose (99.2 µg PSMA I&T content) was 0.04 Gy/GBq. For the same molecule, the Liver absorbed dose (105.1 µg PSMA I&T content) was 0.06 Gy/GBq, the Liver absorbed dose (108.5 µg PSMA I&T content) was 0.07 Gy/GBq and 0.05 Gy/GBq and the Liver absorbed dose (110.6 µg PSMA I&T content) was 0.03 Gy/GBq. For the same molecule, the Liver absorbed dose (119.1 µg PSMA I&T content) was 0.02 Gy/GBq, the “Salivary Glands absorbed dose” value (68.9 µg PSMA I&T content) was 0.11 Gy/GBq and the “Salivary Glands absorbed dose” value (71.6 µg PSMA I&T content) was 0.16 Gy/GBq. For the same molecule, the “Salivary Glands absorbed dose” value (72.1 µg PSMA I&T content) was 0.06 Gy/GBq and 0.00 Gy/GBq, the “Salivary Glands absorbed dose” value (76.8 µg PSMA I&T content) was 0.11 Gy/GBq and the “Salivary Glands absorbed dose” value (77.0 µg PSMA I&T content) was 0.19 Gy/GBq and 0.10 Gy/GBq. For the same molecule, the “Salivary Glands absorbed dose” value (77.7 µg PSMA I&T content) was 0.04 Gy/GBq, the “Salivary Glands absorbed dose” value (79.0 µg PSMA I&T content) was 0.15 Gy/GBq and the “Salivary Glands absorbed dose” value (79.4 µg PSMA I&T content) was 0.12 Gy/GBq. For the same molecule, the “Salivary Glands absorbed dose” value (79.5 µg PSMA I&T content) was 0.26 Gy/GBq and 0.19 Gy/GBq, the “Salivary Glands absorbed dose” value (80.4 µg PSMA I&T content) was 0.20 Gy/GBq and the “Salivary Glands absorbed dose” value (82.0 µg PSMA I&T content) was 0.32 Gy/GBq. The “Salivary Glands absorbed dose” value (82.2 µg PSMA I&T content) was 0.03 Gy/GBq, the “Salivary Glands absorbed dose” value (82.6 µg PSMA I&T content) was 0.16 Gy/GBq and the “Salivary Glands absorbed dose” value (85.3 µg PSMA I&T content) was 0.09 Gy/GBq. The “Salivary Glands absorbed dose” value (89.2 µg PSMA I&T content) was 0.39 Gy/GBq, the “Salivary Glands absorbed dose” value (90.0 µg PSMA I&T content) was 0.80 Gy/GBq and the “Salivary Glands absorbed dose” value (92.6 µg PSMA I&T content) was 0.13 Gy/GBq and 0.14 Gy/GBq. For the same molecule, the “Salivary Glands absorbed dose” value (99.2 µg PSMA I&T content) was 0.27 Gy/GBq, the “Salivary Glands absorbed dose” value (105.1 µg PSMA I&T content) was 0.18 Gy/GBq and the “Salivary Glands absorbed dose” value (108.5 µg PSMA I&T content) was 0.29 Gy/GBq and 0.10 Gy/GBq. For the same molecule, the “Salivary Glands absorbed dose” value (110.6 µg PSMA I&T content) was 0.03 Gy/GBq and the “Salivary Glands absorbed dose” value (119.1 µg PSMA I&T content) was 0.28 Gy/GBq.
